According to patent US20180057505A1, “BICYCLIC HETEROARYL COMPOUNDS USEFUL AS INHIBITORS OF THE PAR-2 SIGNALING PATHWAY” (VERTEX PHARMACEUTICALS INCORPORATED, priority 2015, published 2018):

Legend:
[1] = tested on: carrageenan induced paw edema; assay: Rat carrageenan-induced paw edema model; format: in vivo; settings: given 0.5-3 hour before carrageenan
Description: Example 100: In Vivo Pharmacological Evaluation of PAR2 Pathway Inhibitors Subjects and Housing and Rat Carrageenan-Induced Paw Edema Model Male Sprague Dawley rats were housed in groups in a temperature controlled room and were acclimatized in the animal facility for at least three days prior to use. Experiments were performed during the light phase of the cycle. Animals have food and water ad libitum. Peripheral inflammation was induced by intra-plantar administration of 100 ul of a 1% w/volume (in saline) carrageenan solution under isoflurane anesthesia. The degree of swelling was assessed using the plethysmometer at 2-3-4-5-6 h after carrageenan injection. Test compound or vehicle (0.5% MC/0.1% SDS) was systemically administered at the indicated doses in a volume of 5 mL/kg either 0.5-3 hour before carrageenan challenge (Table 4).

[2] = In vivo rat pharmacokinetics experiments; settings: for F: oral gavage, dose 1 to 600 mg/kg
Description: Example 99: Protocol for Testing PAR2 Compounds In Vivo Rat Pharmacokinetics Experiments
Compounds delivered by intravenous route were formulated using a solution formulation consisting of 5% N-methylpyrrolidone 10% Vitamin E-TPGS and 85% water (v/v/) or a solution formulation consisting of 25% N-methylpyrrolidone 35% polyethylene glycol 400 and 40% water (v/v/). Intravenous formulations were administered by a bolus injection (over approximately 10 seconds) using a hypodermic needle attaches to a syringe (tail vein). The dose volume was varied from 1 to 2 mL/kg and the dose was varied from 0.5 to 1 mg/kg. Compounds delivered orally were formulated as a solution formulation consisting of 5% N-methylpyrrolidone 10% Vitamin E-TPGS and 85% water (v/v/) or as fine suspension using a cellulose derivative suspending agent with or without the addition of a wetting agent/surfactant. Milling of large particles was performed as needed to reduce particle size using focused electroacoustic milling, homogenization or low energy media milling. A spray-dried solid dispersion was prepared for key compounds using 1:1 combination with cellulose derivatives. Test compounds were administered orally by gavage using a gavage plastic needle attached to a syringe. The dose volume was varied from 5 to 10 mL/kg and the dose was varied from 1 to 600 mg/kg.
Rats were bled by venipuncture (jugular vein) and the samples were collected into tubes containing K3EDTA. The tubes were placed on wet ice until processed. The samples were centrifuged for approximately 10 minutes (at approximately 4° C.) within approximately 30 minutes of collection to prepare plasma or diluted in citrate buffer (1:3) and stored frozen (approximately −30° C.). Thawed plasma or whole blood samples were extracted by protein precipitation using an organic solvent followed by centrifugation. The supernatants were separated by high-performance liquid chromatography coupled to mass spectrometry detection. A calibration curve was prepared using reference standard compounds spiked into either blank plasma or whole blood matrices and extracted similarly to unknown samples. Pharmacokinetic parameters were calculated using non-compartmental analysis.

PAR2 (HT-29 cells) [3] = molecular target: T1, PAR2 (HT-29 cells) (Homo sapiens, UniProt P55085); assay: Ca FLIPR TETRA assay, ANTAGONIST mode, activator 8 μM SLIGKV; format: cell-based; settings: HT-29 cells; activator 8 μM SLIGKV; Method A: maximal concentration of antagonist 0.1, 1 or 2 μM
T1 construct: host or cells: HT-29
T1 sequence (P55085 26-397): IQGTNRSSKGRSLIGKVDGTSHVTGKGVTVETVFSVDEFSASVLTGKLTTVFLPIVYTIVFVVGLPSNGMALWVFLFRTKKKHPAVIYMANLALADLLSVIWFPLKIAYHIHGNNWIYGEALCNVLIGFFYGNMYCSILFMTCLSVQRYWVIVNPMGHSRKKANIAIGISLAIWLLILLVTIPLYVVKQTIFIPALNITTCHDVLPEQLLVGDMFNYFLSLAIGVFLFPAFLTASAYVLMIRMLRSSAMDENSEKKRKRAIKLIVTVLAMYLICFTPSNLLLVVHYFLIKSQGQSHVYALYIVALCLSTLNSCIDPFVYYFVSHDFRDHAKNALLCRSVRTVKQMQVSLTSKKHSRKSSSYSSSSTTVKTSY
How it was run: (§1)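 Antagonist-mode FLIPR Tetra Ca2+ read: dye-loaded HT-29 cells preincubated 30 min at r.t. with compound (first read checks agonism alone), then challenged with final 3.1 U/mL trypsin, 8 μM SLIGKV, 1 U/mL thrombin or 0.6 μM UTP. Cells plated overnight in 1% FBS McCoy's; Calcium 5 loading 45 min 37 °C plus 15 min r.t.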

[4] = tested on: UTP-stimulated Ca2+ response in HT-29 cells; assay: Ca FLIPR TETRA assay, ANTAGONIST mode, activator 0.6 μM UTP; format: cell-based; settings: Homo sapiens; HT-29 cells, activator 0.6 μM UTP
How it was run: as §1

PAR2 (HT-29 cells) [5] = molecular target: T1, PAR2 (HT-29 cells); assay: Ca FLIPR TETRA assay, ANTAGONIST mode, activator 3.1 U/mL trypsin; format: cell-based; settings: HT-29 cells; activator 3.1 U/mL trypsin; Method A: maximal concentration of antagonist 0.1, 1 or 2 μM
How it was run: as §1

[6] = tested on: Thrombin-stimulated Ca2+ response in HT-29 cells; assay: Ca FLIPR TETRA assay, ANTAGONIST mode, activator 1 U/mL Thrombin; format: cell-based; settings: Homo sapiens; HT-29 cells, activator 1 U/mL Thrombin
How it was run: as §1

[7] = intravenous bolus 0.5 to 1 mg/kg, non-compartmental analysis

Structure (SMILES)	% inhibition ([1]; dose 20 mg/kg)	Clp [2, 7]	T ½ ([2]; non-compartmental analysis)	F [2]	other results
CC(C)(C)c1cc(-c2ccc(Cl)c(F)c2)nc2cc(C(=O)N3CCN(c4cn[nH]c4)C(=O)C3(C)C)oc12 [Compound I-260]	0.4%	3.4 mL/min/kg	30.7 h	87%	
CC(C)(C)c1cc(-c2ccc(Cl)c(F)c2)nc2cc(C(=O)N3CCN(c4ccc(C(=O)O)cn4)CC3(C)C)oc12 [Compound I-287]		5.2 mL/min/kg	3.7 h	58%	% inhibition ([1]; dose 200 mg/kg): 30%
CC1(C)CCC(c2cc(C(C)(C)C)c3oc(C(=O)N4CCN(C(=O)[C@H]5CC[C@@](C)(C(=O)O)CC5)CC4(C)C)cc3n2)CC1 [Compound I-316]	38%	13.9 mL/min/kg	1.0 h	49%	% inhibition ([1]; dose 5 mg/kg): 25%
CC(C)(C)c1cc(-c2ccc(Cl)c(F)c2)nc2cc(C(=O)N3CCN(C(=O)CC4(C(=O)O)CCCC4)CC3(C)C)oc12 [Compound I-324]	71%	21.3 mL/min/kg	0.47 h	19%	
CC(C)(C)c1cc(-c2ccc(Cl)c(F)c2)nc2cc(C(=O)N3CCN(c4ncc(-c5nnn[nH]5)cn4)CC3(C)C)oc12 [Compound I-331]	27%	8.9 mL/min/kg	1.6 h		
CC1(C)CCC(c2cc(C(C)(C)C)c3oc(C(=O)N4CCN(C(=O)CC5(C(=O)O)CCC5)CC4(C)C)cc3n2)CC1 [Compound I-338]	0%	33 mL/min/kg	0.5 h		
CC(C)[C@H](CC(=O)N1CCN(C(=O)c2cc3nc(-c4ccc(Cl)c(F)c4)cc(C(C)(C)C)c3o2)C(C)(C)C1)C(=O)O [Compound I-343]	29%	53 mL/min/kg	0.33 h	27%	
CC(C)(C)c1cc(-c2ccc(Cl)c(F)c2)nc2cc(C(=O)N3CCN(c4cccc(-c5nnn[nH]5)n4)CC3(C)C)oc12 [Compound I-344]	43%	10.2 mL/min/kg	0.99 h	24%	
CC1(C)CCC(c2cc(C(C)(C)C)c3oc(C(=O)N4CCN(c5cccc(-c6nnn[nH]6)n5)CC4(C)C)cc3n2)CC1 [Compound I-345]		7.6 mL/min/kg	1.8 h	52%	% inhibition ([1]; dose 15 mg/kg): 28%
CC1(C)CCC(c2cc(C(C)(C)C)c3oc(C(=O)N4CCN(c5ncc(-c6nnn[nH]6)cn5)CC4(C)C)cc3n2)CC1 [Compound I-346]	60%	16.5 mL/min/kg	0.44 h	4.7%	
Cc1ccc(C(=O)O)c(N2CCN(C(=O)c3cc4nc(-c5ccc(Cl)c(F)c5)cc(C(C)(C)C)c4o3)C(C)(C)C2)n1 [Compound I-352]	61%	6.5 mL/min/kg	5.6 h	48%	
CC1(C)CCC(c2cc(C(C)(C)C)c3oc(C(=O)N4CCN(C(=O)CCC(C)(C)C(=O)O)CC4(C)C)cc3n2)CC1 [Compound I-354]	60%	32 mL/min/kg	0.57 h	52%	
CC(C)(CCC(=O)N1CCN(C(=O)c2cc3nc(-c4ccc(Cl)c(F)c4)cc(C(C)(C)C)c3o2)C(C)(C)C1)C(=O)O [Compound I-367]	68%	28 mL/min/kg	0.32 h	2.7%	
CC(C)(C)c1cc(-c2ccc(Cl)c(F)c2)nc2cc(C(=O)N3CCN(c4ccn[nH]4)C(=O)C3(C)C)oc12 [Compound I-406]	21%	3.6 mL/min/kg	23.2 h	66%	
Cc1nc(N2CCN(C(=O)c3cc4nc(-c5ccc(Cl)c(F)c5)cc(C(C)(C)C)c4o3)C(C)(C)C2)ccc1C(=O)O [Compound I-411]		6.5 mL/min/kg	2.0 h	70%	% inhibition ([1]; dose 8 mg/kg): 36%
CC1(C)CCC(c2cc(C(C)(C)C)c3oc(C(=O)N4CCN(c5cccc(C(=O)O)n5)CC4(C)C)cc3n2)CC1 [Compound I-449]		5.0 mL/min/kg	5.3 h	119%	% inhibition ([1]; dose 15 mg/kg): 22%
Cc1nc(N2CCN(C(=O)c3cc4nc(C5CCC(C)(C)CC5)cc(C(C)(C)C)c4o3)C(C)(C)C2)ncc1C(=O)O [Compound I-465]	6%	9.2 mL/min/kg	5.1 h	46%	
CC(C)(C)c1cc(-c2ccc(Cl)c(F)c2)nc2cc(C(=O)N3CCN(c4cccc(C(=O)O)n4)CC3(C)C)oc12 [Example I-448, 6-[4-[7-tert-butyl-5-(4-chloro-3-fluoro-phenyl)furo[3,2-b]pyridine-2-carbonyl]-3,3-dimethyl-piperazin-1-yl]pyridine-2-carboxylic acid]	21%			125%	IC50 (PAR2 (HT-29 cells) [3]): 0.2 nM; % inhibition ([1]; dose 0.8 mg/kg): 11%; % inhibition ([1]; dose 3 mg/kg): 18%; % inhibition ([1]; dose 10 mg/kg): 30%; IC50 [4]: 1790 nM; IC50 (PAR2 (HT-29 cells) [5]): 0.3 nM; clearance ([2]; plasma, intravenous bolus 0.5 to 1 mg/kg, non-compartmental analysis, read-out: Clp): 9.3 mL/min/kg; half-life ([2]; plasma, non-compartmental analysis, read-out: T ½ (converted)): 5.2 h; IC50 [6]: 2000 nM
